Test results taken from ChEMBL document CHEMBL5537183, “Discovery, Optimization, and Biological Evaluation of Arylpyridones as Cbl-b Inhibitors” (J Med Chem, 2024).

Legend:
[1] = Lipophilicity, logD of compound at pH 7.4; assay type: physicochemical; conditions: buffer
[2] = Clearance in human hepatocytes assessed as measured per million cells at 0.1 to 1 uM measured for 120 mins by LC-MS/MS analysis; assay type: ADME, cell-based, Hepatocyte; conditions: dose 0.1-1 µM, read-out: CLH
[3] = Induction of IL-2 production in human T cells; assay type: functional, cell-based, T-cell
[4] = molecular target: E3 ubiquitin-protein ligase CBL (Homo sapiens, UniProt P22681); test: Inhibition of cCbl (unknown origin) by TR-FRET assay
[5] = Stability in human liver microsome assessed as intrinsic clearance; assay type: ADME; conditions: liver microsomes, read-out: CLH
[6] = molecular target: T1, E3 ubiquitin-protein ligase CBL-B (Homo sapiens, UniProt Q13191); test: Inhibition of biotinylated recombinant Cbl-b (36 to 427 residues)(unknown origin) expressed in Escherichia coli BL21(DE3) Tuner cells using a FAM-labeled probe by TR-FRET assay
[7] = Clearance in rat hepatocytes assessed as measured per million cells at 0.1 to 1 uM measured for 120 mins by LC-MS/MS analysis; assay type: ADME, cell-based, Hepatocyte; conditions: dose 0.1-1 µM
[8] = molecular target: T1, E3 ubiquitin-protein ligase CBL-B; test: Inhibition of biotinylated recombinant Cbl-b (36 to 427 residues)(unknown origin) expressed in Escherichia coli BL21(DE3) Tuner cells assessed as decrease in ZAP70 ubiquitination incubated for 60 mins in presence of Ub-FITC/ATP by TR-FRET assay
[9] = molecular target: T1, E3 ubiquitin-protein ligase CBL-B; test: Inhibition of biotinylated recombinant Cbl-b (36 to 427 residues)(unknown origin) expressed in Escherichia coli BL21(DE3) Tuner cells assessed as decrease in Cbl-b auto-ubiquitination incubated for 60 mins in presence of Ub-FITC/ATP by TR-FRET assay
[10] = Half life in Wistar Han rat at 0.5 mg/kg, iv measured for 24 hrs by LC-MS/MS analysis; assay type: ADME, organism-based; conditions: in vivo
[11] = Oral bioavailability in CD1 mouse at 1 mg/kg measured for 24 hrs by LC-MS/MS analysis; assay type: ADME, organism-based; conditions: in vivo
[12] = Cmax in Wistar Han rat at 1 mg/kg, po measured for 24 hrs by LC-MS/MS analysis; assay type: ADME, organism-based; conditions: in vivo
[13] = AUC (infinity) in Wistar Han rat at 1 mg/kg, po measured for 24 hrs by LC-MS/MS analysis; assay type: ADME, organism-based; conditions: in vivo
[14] = Clearance in CD1 mouse at 0.5 mg/kg, iv measured for 24 hrs by LC-MS/MS analysis; assay type: ADME, organism-based; conditions: in vivo
[15] = Volume of distribution at steady state in Wistar Han rat at 0.5 mg/kg, iv measured for 24 hrs by LC-MS/MS analysis; assay type: ADME, organism-based; conditions: in vivo, read-out: Vdss
[16] = Half life in CD1 mouse at 0.5 mg/kg, iv measured for 24 hrs by LC-MS/MS analysis; assay type: ADME, organism-based; conditions: in vivo
[17] = Tmax in CD1 mouse at 1 mg/kg, po measured for 24 hrs by LC-MS/MS analysis; assay type: ADME, organism-based; conditions: in vivo
[18] = Volume of distribution at steady state in CD1 mouse at 0.5 mg/kg, iv measured for 24 hrs by LC-MS/MS analysis; assay type: ADME, organism-based; conditions: in vivo, read-out: Vdss
[19] = Clearance in Wistar Han rat at 0.5 mg/kg, iv measured for 24 hrs by LC-MS/MS analysis; assay type: ADME, organism-based; conditions: in vivo
[20] = Oral bioavailability in Wistar Han rat at 1 mg/kg measured for 24 hrs by LC-MS/MS analysis; assay type: ADME, organism-based; conditions: in vivo
[21] = Tmax in Wistar Han rat at 1 mg/kg, po measured for 24 hrs by LC-MS/MS analysis; assay type: ADME, organism-based; conditions: in vivo
[22] = Cmax in CD1 mouse at 1 mg/kg, po measured for 24 hrs by LC-MS/MS analysis; assay type: ADME, organism-based; conditions: in vivo
[23] = AUC (infinity) in CD1 mouse at 1 mg/kg, po measured for 24 hrs by LC-MS/MS analysis; assay type: ADME, organism-based; conditions: in vivo

T1 sequence (Q13191 whole entry, the tested form may be a part): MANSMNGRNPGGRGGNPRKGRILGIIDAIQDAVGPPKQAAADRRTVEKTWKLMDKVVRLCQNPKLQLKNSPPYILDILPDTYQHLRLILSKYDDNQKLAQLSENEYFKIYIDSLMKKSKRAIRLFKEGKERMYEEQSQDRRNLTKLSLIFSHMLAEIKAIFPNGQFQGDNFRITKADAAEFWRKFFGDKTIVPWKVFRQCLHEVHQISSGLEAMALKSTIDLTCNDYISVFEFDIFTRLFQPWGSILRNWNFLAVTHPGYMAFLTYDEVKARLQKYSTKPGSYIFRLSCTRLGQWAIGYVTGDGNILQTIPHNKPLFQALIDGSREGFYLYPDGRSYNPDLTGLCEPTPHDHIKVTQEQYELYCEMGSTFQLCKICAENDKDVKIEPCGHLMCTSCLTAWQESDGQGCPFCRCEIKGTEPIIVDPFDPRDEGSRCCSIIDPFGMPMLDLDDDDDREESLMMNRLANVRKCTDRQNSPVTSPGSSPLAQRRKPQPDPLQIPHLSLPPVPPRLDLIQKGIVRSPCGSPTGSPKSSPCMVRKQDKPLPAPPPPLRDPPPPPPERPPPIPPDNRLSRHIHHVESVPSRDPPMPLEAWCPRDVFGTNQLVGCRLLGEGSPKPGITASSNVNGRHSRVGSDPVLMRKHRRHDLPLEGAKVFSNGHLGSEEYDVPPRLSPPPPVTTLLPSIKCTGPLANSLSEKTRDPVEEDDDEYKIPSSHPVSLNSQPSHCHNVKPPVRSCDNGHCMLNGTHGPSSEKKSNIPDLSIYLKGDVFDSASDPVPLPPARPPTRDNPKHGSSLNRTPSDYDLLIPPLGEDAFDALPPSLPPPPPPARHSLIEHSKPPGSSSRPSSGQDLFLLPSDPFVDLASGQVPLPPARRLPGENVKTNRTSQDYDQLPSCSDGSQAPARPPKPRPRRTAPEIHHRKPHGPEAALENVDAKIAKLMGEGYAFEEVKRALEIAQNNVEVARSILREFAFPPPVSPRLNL

Row | Compound | logD [1] | EC50 ([3]; Homo sapiens, T-cell) [nM] | IC50 [4] [nM] | microsomal CLint [5] [µL/min/mg] | IC50 [6] [nM] | hepatocyte CLint at up to 1 µM [7] [µL/min/1e6 cells] | further results
1 | Cc1nnc(Cn2cc(C(F)(F)F)cc(-c3cccc([C@]4(c5nncn5C)C[C@@H](C)C4)c3)c2=O)o1 | 1.7 | 2860 | 330 | 29 | 70 | 7.8 | hepatocyte CLint at up to 1 µM [2]: 1.7 µL/min/1e6 cells
2 | C[C@H](c1cnn(C)c1)n1cc(C(F)(F)F)cc(-c2cccc([C@]3(c4nncn4C)C[C@@H](C)C3)c2)c1=O | 2.9 | 590 |  | 220 |  | 21 | 
3 | Cn1cnnc1[C@]1(c2cccc(-n3cc(C(F)(F)F)ccc3=O)c2)C[C@H](C)C1 | 1.6 |  | 10300 | 15 | 2100 |  | 
4 | CC#CCn1cc(C(F)(F)F)cc(-c2cccc([C@]3(c4nncn4C)C[C@@H](C)C3)c2)c1=O | 3.3 | 850 | 160 | 76 | 34 | 21 | 
5 | Cn1cc(C(F)(F)F)c2cc(-c3cccc([C@]4(c5nncn5C)C[C@@H](C)C4)c3)c(=O)[nH]c21 | 3.8 |  | 860 | 83 | 190 |  | 
6 | C[C@@H](COCCC(=O)N1CCN2c3ncc(C(F)(F)F)cc3NC(=O)C2C1)Nc1cn[nH]c(=O)c1C(F)(F)F (stereo partly drawn) |  |  |  |  |  |  | IC50 [8]: 26.9 nM; IC50 [9]: 30.7 nM
7 | Cn1cnnc1[C@]1(c2cccc(-c3cc(C4CC4)c[nH]c3=O)c2)C[C@H](C)C1 | 2.4 |  | 1340 | 29 | 360 |  | 
8 | C[C@@H](c1cnn(C)c1)n1cc(C(F)(F)F)cc(-c2cccc([C@]3(c4nncn4C)C[C@@H](C)C3)c2)c1=O | 2.8 |  |  | 160 |  | 6.4 | half-life [10]: 27 min; bioavailability [11]: 19%; Cmax [12]: 21 ng/mL; AUC(0-inf) [13]: 46 ng·h/mL; clearance [14]: 100 mL/min/kg; hepatocyte CLint at up to 1 µM [2]: 8.7 µL/min/1e6 cells; EC50 ([3]; t-cell): 230 nM; Vd [15]: 1.6 L/kg; half-life [16]: 18 min; Tmax [17]: 4.98 min; Vd [18]: 1.3 L/kg; clearance [19]: 55 mL/min/kg; bioavailability [20]: 15%; Tmax [21]: 45 min; Cmax [22]: 35 ng/mL; AUC(0-inf) [23]: 30 ng·h/mL
9 | Cn1cnnc1[C@]1(c2cccc(-c3cc(C(F)(F)F)ccc3O)c2)C[C@H](C)C1 | 4.4 |  | > 100000 | 21 | > 100000 |  | 
10 | Cn1cnnc1C[C@]1(c2cccc(-c3cc(C(F)(F)F)c[nH]c3=O)c2)C[C@H](C#N)C1 | 1.1 | > 30000 | 960 | 6.8 | 160 |  | 
11 | Cn1cc(Cn2cc(C(F)(F)F)cc(-c3cccc([C@]4(c5nncn5C)C[C@@H](C)C4)c3)c2=O)nn1 | 2.3 | 1680 | 40 | 79 | 30 | 8.1 | 
12 | CN1CCC(Cn2cc(C(F)(F)F)cc(-c3cccc([C@]4(c5nncn5C)C[C@@H](C)C4)c3)c2=O)CC1 | 1.3 | 16700 | 460 | 47 | 74 | 13 | 
13 | Cn1cnc(Cn2cc(C(F)(F)F)cc(-c3cccc([C@]4(c5nncn5C)C[C@@H](C)C4)c3)c2=O)c1 | 2.4 | 2530 | 190 | 130 | 50 | 32 | 
14 | Cn1cnnc1[C@]1(c2cccc(-c3cc(OC(F)(F)F)c[nH]c3=O)c2)C[C@H](C)C1 | 2.6 |  | 1700 | 3 | 310 |  | 
15 | Cn1cnnc1[C@]1(c2cccc(-c3cc(C(F)(F)F)c[nH]c3=O)c2)C[C@H](C)C1 | 3.58 |  | 580 | 2.5 | 84 | 16 | 
16 | CC#C[C@H](C)n1cc(C(F)(F)F)cc(-c2cccc([C@]3(c4nncn4C)C[C@@H](C)C3)c2)c1=O | 3.9 | 460 | 40 | 190 | 30 | 24 | 
17 | Cn1cc(C(F)(F)F)cc(-c2cccc([C@]3(c4nncn4C)C[C@@H](C)C3)c2)c1=O | 2.4 | 5890 | 880 | 37 | 145 | 16 | 
18 | Cn1cnnc1C1(c2cccc(-c3cc(C(F)(F)F)c[nH]c3=O)c2)CCC1 | 2.1 | 3980 | 2200 | 14 | 340 |  | 
19 | Cn1cnnc1[C@]1(c2cccc(-c3nc(C(F)(F)F)c[nH]c3=O)c2)C[C@H](C)C1 | 2.1 |  | 6550 | 15 | 890 |  | 
20 | Cn1cnnc1[C@@H](c1cccc(-c2cc(C(F)(F)F)c[nH]c2=O)c1)C1CCC1 (racemic) | 2.5 | 5290 | 410 | 25 | 59 |  | 
21 | COc1c[nH]c(=O)c(-c2cccc([C@]3(c4nncn4C)C[C@@H](C)C3)c2)c1 | 1.5 |  | 11600 | 9.7 | 2680 |  | 
22 | Cc1c[nH]c(=O)c(-c2cccc([C@]3(c4nncn4C)C[C@@H](C)C3)c2)c1 | 2.6 |  | 6300 | 3 | 1470 |  | 
23 | C[C@@H](C#N)n1cc(C(F)(F)F)cc(-c2cccc([C@]3(c4nncn4C)C[C@@H](C)C3)c2)c1=O | 2.2 | 440 | 50 | 85 | 40 | 12 | 
24 | Cn1cc(Cn2cc(C(F)(F)F)cc(-c3cccc([C@]4(c5nncn5C)C[C@@H](C)C4)c3)c2=O)cn1 | 2.7 | 3000 | 200 | 200 | 40 | 9.7 | 
25 | CN1CC[C@H](Cn2cc(C(F)(F)F)cc(-c3cccc([C@]4(c5nncn5C)C[C@@H](C)C4)c3)c2=O)C1 | 1.1 | 10800 | 330 | 13 | 50 | 2.4 | 
